Experimental data: patent US11767341B2, “Lincosamide antibiotics and uses thereof” (President and Fellows of Harvard College, priority 2017, dated 2023)
≈ marks a conversion by molar mass, not a printed value. Like-named read-outs stand apart in the source and are kept apart here.

How the values were obtained:
Experiment in all cases: MIC determination
Type in all cases: cell-based
[1] = test system: S. aureus MP-549 msr(a) USA 300; details: Staphylococcus aureus, USA300, S. aureus MP-549 msr(a) USA 300
E. faecalis ATCC 29212 = details: Enterococcus faecalis
S. aureus ATCC 29213 = details: Staphylococcus aureus
S. pneumoniae ATCC 49619 = details: Streptococcus pneumoniae, ATCC49619
S. aureus BAA 977 iErmA = details: Staphylococcus aureus, BAA977
S. pyogenes ATCC 19615 = details: Streptococcus pyogenes, ATCC19615; S. pyogenes ATCC 19615; read-out: MIC
[2] = test system: E. coli MP-74 LptD mutant; details: Escherichia coli
E. coli ATCC 25922 = details: Escherichia coli
K. pneumoniae ATCC 10031 = details: Klebsiella pneumoniae, ATCC10031
C. difficile BAA 1805 = details: Clostridioides difficile, BAA1805
H. influenzae ATCC 49247 = details: Haemophilus influenzae, ATCC49247
E. coli MP-9 ΔTolC = details: Escherichia coli
S. aureus MMX 3035 cErmA = details: Staphylococcus aureus, MMX3035CERMA; S. aureus MMX 3035 cErmA; read-out: MIC
[3] = test system: E. faecalis MMX 847 Macrolide-Resistant; details: Enterococcus faecalis, read-out: MIC
[4] = test system: S. pyogenes MMX 946 Macrolide-Resistant; details: Streptococcus pyogenes, read-out: MIC
[5] = test system: S. pneumoniae MMX 3028 cErmB; details: Streptococcus pneumoniae, MMX3028CERMB
[6] = test system: S. pneumoniae MMX 3031 cMefA; details: Streptococcus pneumoniae, MMX3031CMEFA
[7] = ATCC29213, S. aureus ATCC 29213, read-out: MIC
[8] = S. pneumoniae ATCC 49619, read-out: MIC
[9] = ATCC25922, E. coli ATCC 25922, read-out: MIC
[10] = H. influenzae ATCC 49247, read-out: MIC
[11] = S. pneumoniae MMX 3028 cErmB, read-out: MIC
[12] = K. pneumoniae ATCC 10031, read-out: MIC

| SMILES | MIC [1] [mg/L] | MIC (E. faecalis ATCC 29212; ATCC29212) [mg/L] | MIC (S. aureus ATCC 29213; ATCC29213) [mg/L] | MIC (S. pneumoniae ATCC 49619) [mg/L] | MIC (S. aureus BAA 977 iErmA) [mg/L] | MIC (S. pyogenes ATCC 19615) [mg/L] | MIC [2] [mg/L] | MIC (E. coli ATCC 25922; ATCC25922) [mg/L] | MIC (K. pneumoniae ATCC 10031) [mg/L] | MIC (H. influenzae ATCC 49247) [mg/L] | MIC (E. coli MP-9 ΔTolC) [mg/L] | MIC (E. faecalis ATCC 29212; ATCC29212, read-out: MIC) [mg/L] | MIC (S. aureus ATCC 29213; [7]) [mg/L] | MIC (S. pneumoniae ATCC 49619; [8]) [mg/L] | MIC (S. aureus MMX 3035 cErmA) [mg/L] | MIC (E. coli ATCC 25922; [9]) [mg/L] | MIC [6] [mg/L] | MIC ([3]; E. faecalis MMX 847 MacRes) [mg/L] | MIC ([4]; S. pyogenes MMX 946 MacRes) [mg/L] | MIC [5, 11] [mg/L] | further results |
| --- | --- | --- | --- | --- | --- | --- | --- | --- | --- | --- | --- | --- | --- | --- | --- | --- | --- | --- | --- | --- | --- |
| CSC1O[C@H]([C@H](NC(=O)[C@H]2NC[C@@H]3CC(N)CCO[C@H]32)[C@H](C)Cl)C(O)[C@@H](O)[C@H]1O (stereo partly shown) [FSA-510012] | > 64 | > 64 | > 64 | > 64 | > 64 | 32 (≈ 70.5 µM) | > 64 | > 64 | > 64 | > 64 | > 64 |  |  |  |  |  |  |  |  |  | MIC (C. difficile BAA 1805): > 64 mg/L |
| CNC1CCO[C@@H]2[C@H](CN[C@@H]2C(=O)N[C@H]([C@H](C)Cl)[C@H]2OC(SC)[C@H](O)[C@H](O)C2O)C1 (stereo partly shown) [FSA-510065] | > 64 | > 64 | > 64 | > 64 | > 64 | 32 (≈ 68.4 µM) | > 64 | > 64 | > 64 | > 64 | > 64 |  |  |  |  |  |  |  |  |  | MIC (C. difficile BAA 1805): > 64 mg/L |
| CSC1O[C@H]([C@H](NC(=O)[C@H]2NC[C@@H]3C=C(c4cc(F)cc(F)c4)CCO[C@@H]23)[C@H](C)Cl)C(O)[C@@H](O)[C@H]1O (stereo partly shown) [FSA-511074] | 1 (≈ 1.82 µM) |  |  |  | 2 (≈ 3.64 µM) | 0.5 (≈ 0.911 µM) | 64 (≈ 117 µM) |  | 64 (≈ 117 µM) |  | 64 (≈ 117 µM) | 4 (≈ 7.29 µM) | 2 (≈ 3.64 µM) | 0.25 (≈ 0.455 µM) | > 64 | > 64 | 0.25 (≈ 0.455 µM) |  |  |  | MIC ([3]; E. faecalis MMX 847 Macrolide-Resistant (MacRes)): > 64 mg/L; MIC ([4]; S. pyogenes MMX 946 Macrolide-Resistant (MacRes)): > 64 mg/L; MIC [5]: 64 mg/L (≈ 117 µM); MIC (H. influenzae ATCC 49247; [10]): > 64 mg/L |
| CSC1O[C@H]([C@H](NC(=O)[C@H]2NC[C@@H]3C[C@@H](c4cccc(F)c4)CCO[C@H]32)[C@H](C)Cl)C(O)[C@@H](O)[C@H]1O (stereo partly shown) [FSA-511077] | 0.25 (≈ 0.469 µM) |  |  |  | 0.25 (≈ 0.469 µM) | ≤ 0.06 | 16 (≈ 30 µM) |  |  | 16 (≈ 30 µM) | 4 (≈ 7.5 µM) | 0.5 (≈ 0.938 µM) | 0.25 (≈ 0.469 µM) | ≤ 0.06 | > 64 | > 64 | ≤ 0.06 | 64 (≈ 120 µM) | 32 (≈ 60 µM) | 8 (≈ 15 µM) | MIC (K. pneumoniae ATCC 10031; [12]): 8 mg/L (≈ 15 µM) |
| CSC1O[C@H]([C@H](NC(=O)[C@H]2NC[C@@H]3C[C@@H](c4ccc(F)cc4F)CCO[C@H]32)[C@H](C)Cl)C(O)[C@@H](O)[C@H]1O (stereo partly shown) [FSA-511078] | 0.12 (≈ 0.218 µM) |  |  |  | 0.25 (≈ 0.454 µM) | ≤ 0.06 | 8 (≈ 14.5 µM) |  |  |  | 2 (≈ 3.63 µM) | 0.25 (≈ 0.454 µM) | 0.25 (≈ 0.454 µM) | ≤ 0.06 | > 64 | > 64 | ≤ 0.06 | 64 (≈ 116 µM) | 16 (≈ 29 µM) | 4 (≈ 7.26 µM) | MIC (K. pneumoniae ATCC 10031; [12]): 8 mg/L (≈ 14.5 µM); MIC (H. influenzae ATCC 49247; [10]): 16 mg/L (≈ 29 µM) |
| CSC1O[C@H]([C@H](NC(=O)[C@H]2NC[C@@H]3C[C@@H](c4cc(F)cc(F)c4)CCO[C@H]32)[C@H](C)Cl)C(O)[C@@H](O)[C@H]1O (stereo partly shown) [FSA-511080] | 0.25 (≈ 0.454 µM) |  |  |  | 0.25 (≈ 0.454 µM) | ≤ 0.06 | 16 (≈ 29 µM) |  | 16 (≈ 29 µM) | 16 (≈ 29 µM) | 4 (≈ 7.26 µM) | 0.5 (≈ 0.907 µM) | 0.12 (≈ 0.218 µM) | ≤ 0.06 | > 64 | > 64 | ≤ 0.06 | > 64 | 32 (≈ 58.1 µM) | 8 (≈ 14.5 µM) |  |
